Test [1] deals with Metabotropic glutamate receptor 4 (Homo sapiens, UniProt Q14833). The test can be described thus: Displacement of [3H]LAP4 from mGluR4 receptor expressed in BHK cells. Type of test: cell-based. For orientation: In a radioligand displacement assay an active substance lowers the binding of a labelled ligand.
Test [2] concerns the target Metabotropic glutamate receptor 1 (Homo sapiens, UniProt Q13255). The test can be described thus: Displacement of [3H]quisqualate from mGluR1 receptor expressed in BHK cells. In kind it is cell-based.
For test [3], the target named is Metabotropic glutamate receptor 2 (Homo sapiens, UniProt Q14416). Kind of test: Displacement of [3H]LY341495 from mGluR2 receptor expressed in BHK cells. In kind it is cell-based.
Test [4] deals with Metabotropic glutamate receptor 5 (Homo sapiens, UniProt P41594). Kind of test: Binding affinity to mGluR5 receptor expressed in BHK cells. Type of test: cell-based.
Test [5] in a line: Displacement of [3H]AMPA from rat AMPA receptor in rat brain membranes.
In a further test the target is Glutamate NMDA receptor. The test can be described thus: Displacement of [3H]CGP-39653 from rat NMDA receptor in rat brain membranes.
Test [6] is described as follows: Displacement of [3H]kainic acid from rat KA receptor in rat brain membranes.

Sequence of Metabotropic glutamate receptor 1 (Q13255 whole entry): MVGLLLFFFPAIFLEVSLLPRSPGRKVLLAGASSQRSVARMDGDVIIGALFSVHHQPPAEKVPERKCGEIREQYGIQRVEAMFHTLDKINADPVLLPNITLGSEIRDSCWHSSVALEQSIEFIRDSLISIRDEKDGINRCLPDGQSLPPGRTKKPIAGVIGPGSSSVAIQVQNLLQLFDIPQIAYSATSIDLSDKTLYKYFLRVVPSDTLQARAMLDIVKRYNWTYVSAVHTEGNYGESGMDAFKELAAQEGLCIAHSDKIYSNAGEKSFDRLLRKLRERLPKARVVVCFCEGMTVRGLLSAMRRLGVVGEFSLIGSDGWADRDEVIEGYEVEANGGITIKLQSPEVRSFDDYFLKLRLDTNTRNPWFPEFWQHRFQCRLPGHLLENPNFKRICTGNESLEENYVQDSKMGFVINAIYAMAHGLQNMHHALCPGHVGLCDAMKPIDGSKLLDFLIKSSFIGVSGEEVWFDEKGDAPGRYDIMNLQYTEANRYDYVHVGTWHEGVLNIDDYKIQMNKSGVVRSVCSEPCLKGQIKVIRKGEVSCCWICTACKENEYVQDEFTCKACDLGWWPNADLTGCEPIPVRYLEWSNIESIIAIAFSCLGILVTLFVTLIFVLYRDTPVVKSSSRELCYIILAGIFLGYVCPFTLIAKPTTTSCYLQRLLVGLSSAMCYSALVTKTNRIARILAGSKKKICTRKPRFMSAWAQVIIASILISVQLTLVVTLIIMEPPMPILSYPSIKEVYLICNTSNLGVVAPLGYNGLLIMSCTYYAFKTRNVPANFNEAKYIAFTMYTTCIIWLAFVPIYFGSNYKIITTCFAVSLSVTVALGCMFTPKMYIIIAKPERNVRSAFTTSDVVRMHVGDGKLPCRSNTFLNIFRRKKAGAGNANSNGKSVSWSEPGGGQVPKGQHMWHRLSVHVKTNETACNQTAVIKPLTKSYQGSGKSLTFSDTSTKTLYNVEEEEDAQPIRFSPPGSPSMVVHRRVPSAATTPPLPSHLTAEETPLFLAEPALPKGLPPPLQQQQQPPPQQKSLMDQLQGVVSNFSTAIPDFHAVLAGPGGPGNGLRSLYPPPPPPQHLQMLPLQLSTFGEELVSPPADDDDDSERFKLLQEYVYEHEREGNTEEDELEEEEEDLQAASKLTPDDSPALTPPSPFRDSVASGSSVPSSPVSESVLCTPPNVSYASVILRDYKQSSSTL
Sequence of Metabotropic glutamate receptor 2 (Q14416 whole entry): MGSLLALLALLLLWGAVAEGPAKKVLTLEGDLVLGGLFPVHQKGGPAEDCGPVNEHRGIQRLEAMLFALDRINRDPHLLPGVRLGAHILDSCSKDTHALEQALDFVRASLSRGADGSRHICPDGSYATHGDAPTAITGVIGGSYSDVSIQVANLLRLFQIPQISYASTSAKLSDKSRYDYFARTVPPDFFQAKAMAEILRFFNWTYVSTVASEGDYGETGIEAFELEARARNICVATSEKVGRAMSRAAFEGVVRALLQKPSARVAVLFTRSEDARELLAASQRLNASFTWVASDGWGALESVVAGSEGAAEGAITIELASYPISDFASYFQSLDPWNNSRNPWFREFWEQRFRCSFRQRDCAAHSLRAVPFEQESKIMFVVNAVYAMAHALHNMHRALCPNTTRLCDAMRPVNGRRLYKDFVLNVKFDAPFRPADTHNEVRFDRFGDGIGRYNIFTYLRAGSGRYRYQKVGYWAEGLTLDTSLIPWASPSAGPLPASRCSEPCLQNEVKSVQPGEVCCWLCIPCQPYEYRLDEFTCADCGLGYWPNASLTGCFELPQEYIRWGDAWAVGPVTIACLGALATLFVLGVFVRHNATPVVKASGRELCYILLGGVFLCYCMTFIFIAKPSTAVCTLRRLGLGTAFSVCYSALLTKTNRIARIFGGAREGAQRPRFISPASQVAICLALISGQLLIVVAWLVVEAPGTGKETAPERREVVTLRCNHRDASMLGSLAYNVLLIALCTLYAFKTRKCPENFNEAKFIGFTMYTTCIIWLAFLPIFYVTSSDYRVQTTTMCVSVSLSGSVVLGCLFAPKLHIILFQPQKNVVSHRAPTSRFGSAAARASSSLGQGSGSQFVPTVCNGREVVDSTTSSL
Sequence of Metabotropic glutamate receptor 4 (Q14833 whole entry): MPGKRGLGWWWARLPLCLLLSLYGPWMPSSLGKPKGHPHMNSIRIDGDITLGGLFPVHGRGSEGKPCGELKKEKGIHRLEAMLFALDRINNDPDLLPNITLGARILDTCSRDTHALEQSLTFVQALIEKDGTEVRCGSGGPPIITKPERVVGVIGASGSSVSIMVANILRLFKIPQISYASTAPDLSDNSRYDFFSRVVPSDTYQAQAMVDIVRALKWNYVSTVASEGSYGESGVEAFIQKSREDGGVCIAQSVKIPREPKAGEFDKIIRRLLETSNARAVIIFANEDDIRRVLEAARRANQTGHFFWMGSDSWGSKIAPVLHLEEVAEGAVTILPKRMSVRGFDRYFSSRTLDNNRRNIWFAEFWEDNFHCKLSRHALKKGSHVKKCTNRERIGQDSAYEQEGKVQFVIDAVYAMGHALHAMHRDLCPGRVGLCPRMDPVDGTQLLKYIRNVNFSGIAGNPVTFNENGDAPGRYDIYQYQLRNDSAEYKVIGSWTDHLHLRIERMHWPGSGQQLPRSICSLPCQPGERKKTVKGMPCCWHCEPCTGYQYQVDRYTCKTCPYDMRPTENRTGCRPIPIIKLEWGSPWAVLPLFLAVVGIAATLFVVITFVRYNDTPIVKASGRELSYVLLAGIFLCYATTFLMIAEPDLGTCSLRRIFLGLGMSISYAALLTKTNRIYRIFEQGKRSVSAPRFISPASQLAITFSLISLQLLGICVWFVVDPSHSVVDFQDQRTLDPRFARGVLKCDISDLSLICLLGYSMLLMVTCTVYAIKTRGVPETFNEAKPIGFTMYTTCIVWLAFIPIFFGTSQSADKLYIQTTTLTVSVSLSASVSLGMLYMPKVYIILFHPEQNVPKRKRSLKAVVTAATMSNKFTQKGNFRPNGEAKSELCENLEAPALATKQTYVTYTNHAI
Sequence of Metabotropic glutamate receptor 5 (P41594 whole entry): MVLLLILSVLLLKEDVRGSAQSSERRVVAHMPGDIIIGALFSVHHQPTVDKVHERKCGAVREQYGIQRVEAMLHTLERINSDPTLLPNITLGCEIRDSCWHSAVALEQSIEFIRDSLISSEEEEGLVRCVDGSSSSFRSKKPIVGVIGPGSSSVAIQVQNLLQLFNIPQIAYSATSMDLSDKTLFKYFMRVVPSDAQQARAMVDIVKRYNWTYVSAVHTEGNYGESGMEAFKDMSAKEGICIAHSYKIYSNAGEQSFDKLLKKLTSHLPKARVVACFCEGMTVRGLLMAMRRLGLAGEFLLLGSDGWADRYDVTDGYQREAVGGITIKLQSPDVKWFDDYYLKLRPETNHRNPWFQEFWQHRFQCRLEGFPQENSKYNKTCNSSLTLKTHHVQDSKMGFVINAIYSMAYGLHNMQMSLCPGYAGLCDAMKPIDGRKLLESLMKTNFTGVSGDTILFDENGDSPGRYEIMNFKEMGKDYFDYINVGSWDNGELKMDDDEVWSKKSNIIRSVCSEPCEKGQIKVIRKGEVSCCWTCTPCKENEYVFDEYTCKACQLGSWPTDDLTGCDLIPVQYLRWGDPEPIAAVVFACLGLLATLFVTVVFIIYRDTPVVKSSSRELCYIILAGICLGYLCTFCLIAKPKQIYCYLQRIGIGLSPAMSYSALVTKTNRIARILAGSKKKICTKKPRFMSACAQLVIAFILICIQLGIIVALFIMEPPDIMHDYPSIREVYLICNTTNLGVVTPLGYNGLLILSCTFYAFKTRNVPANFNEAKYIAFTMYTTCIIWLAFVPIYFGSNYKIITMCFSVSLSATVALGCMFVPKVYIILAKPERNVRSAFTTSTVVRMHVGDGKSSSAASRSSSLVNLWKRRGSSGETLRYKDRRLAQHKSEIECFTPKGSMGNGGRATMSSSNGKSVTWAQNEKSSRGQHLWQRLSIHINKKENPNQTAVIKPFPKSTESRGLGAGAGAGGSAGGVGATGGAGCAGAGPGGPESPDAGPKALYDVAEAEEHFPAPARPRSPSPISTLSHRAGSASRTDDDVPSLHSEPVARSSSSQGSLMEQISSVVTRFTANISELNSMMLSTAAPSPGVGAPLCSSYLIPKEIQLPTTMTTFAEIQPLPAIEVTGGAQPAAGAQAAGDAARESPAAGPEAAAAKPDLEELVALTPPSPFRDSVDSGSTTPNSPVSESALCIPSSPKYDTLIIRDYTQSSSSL

`N[C@@H](C(=O)O)[C@@H]1C[C@H]1S(=O)(=O)O`: the Ki – broadly, a dissociation constant, usually derived from enzyme kinetics or from competition with a known ligand – in test [1] is over 300 µM; in test [2], 254 µM; in test [3] it was over 300 µM; in test [4], 67 µM; in test [5], 72 µM; at Glutamate NMDA receptor it was 150 µM. Also, the affinity in test [6] corresponds to a Ki of 71 µM.

For the compound `N[C@H](C(=O)O)[C@H]1C[C@H]1S(=O)(=O)O`, the Ki (in test [1]; in test [2]; in test [3]; in test [4]; in test [5]; on Glutamate NMDA receptor) was over 300 µM each time. In test [6], this compound had a Ki of over 300 µM.

On to `N[C@@H](CCS(=O)(=O)O)C(=O)O`, for which the Ki was 53 µM in test [1]; 87 µM in test [2]; over 300 µM in test [3]; 54 µM in test [4]; 2.4 µM in test [5]; 2.7 µM at Glutamate NMDA receptor. This compound also registered a Ki in test [6] of 9.9 µM.

With `N[C@H](C(=O)O)[C@H]1C[C@@H]1S(=O)(=O)O`, the Ki was over 300 µM in test [1]; 34 µM in test [2]; 235 µM in test [3]; 49 µM in test [4]; over 300 µM in test [5]; over 300 µM at Glutamate NMDA receptor. In test [6], this compound displayed a Ki of over 300 µM.

For the compound `N[C@H](C(=O)O)[C@@H]1C[C@H]1S(=O)(=O)O`, the Ki was over 300 µM in test [1]; 77 µM in test [2]; over 300 µM in test [3]; 81 µM in test [4]; over 300 µM in test [5]; over 300 µM on Glutamate NMDA receptor. Further, the Ki in test [6] stood at 34 µM.

With `N[C@@H](C(=O)O)[C@H]1C[C@H]1S(=O)(=O)O`, the Ki in test [1] was over 300 µM; in test [2], over 300 µM; in test [3] it was over 300 µM; in test [4], 55 µM; in test [5], 72 µM; at Glutamate NMDA receptor it was 61 µM. The compound also returned a Ki in test [6] of 64 µM.

With `N[C@@H](C(=O)O)[C@@H]1C[C@@H]1S(=O)(=O)O`, the Ki (in test [1]; in test [2]; in test [3]; in test [4]; in test [5]; on Glutamate NMDA receptor) was over 300 µM throughout. In addition, in test [6], the Ki amounted to 35 µM.

`N[C@H](C(=O)O)[C@@H]1C[C@@H]1S(=O)(=O)O`: the Ki in test [1] is over 300 µM; in test [2], over 300 µM; in test [3], over 300 µM; in test [4], over 300 µM; in test [5], 0.1 µM; at Glutamate NMDA receptor it was 19 µM. This compound gave a Ki in test [6] of 3.3 µM.

For the compound `N[C@H](C(=O)O)[C@@H]1C[C@@H]1C(=O)O`, on Glutamate NMDA receptor, the Ki is 0.009 µM.

Turning to `N[C@@H](C(=O)O)[C@H]1C[C@@H]1S(=O)(=O)O`, the Ki in test [1] was over 300 µM; in test [2] it was over 300 µM; in test [3] it was over 300 µM; in test [4], over 300 µM; in test [5], 96 µM; at Glutamate NMDA receptor, 22 µM. This compound gave a Ki in test [6] of 34 µM.
